Experimental data from patent US12304909B2, “Compounds and their use in therapy” (IMPERIAL COLLEGE INNOVATIONS LIMITED, priority 2018, dated 2025).
pEC50, pIC50: −log10 of the molar value. “And” between values parts separate entries of the source, which are not always exact repeats. Equal values may be shown once. Read-outs that look alike come from different tables or passages of the source.

Experiments:
human NMT1 (HsNMT1) = biological target: T1, human NMT1 (HsNMT1) (Homo sapiens, UniProt P30419); assay: HsNMT1 IC50, fluorescence-based assay detecting CoA with CPM; format: biochemical
T1 sequence (P30419 1-496): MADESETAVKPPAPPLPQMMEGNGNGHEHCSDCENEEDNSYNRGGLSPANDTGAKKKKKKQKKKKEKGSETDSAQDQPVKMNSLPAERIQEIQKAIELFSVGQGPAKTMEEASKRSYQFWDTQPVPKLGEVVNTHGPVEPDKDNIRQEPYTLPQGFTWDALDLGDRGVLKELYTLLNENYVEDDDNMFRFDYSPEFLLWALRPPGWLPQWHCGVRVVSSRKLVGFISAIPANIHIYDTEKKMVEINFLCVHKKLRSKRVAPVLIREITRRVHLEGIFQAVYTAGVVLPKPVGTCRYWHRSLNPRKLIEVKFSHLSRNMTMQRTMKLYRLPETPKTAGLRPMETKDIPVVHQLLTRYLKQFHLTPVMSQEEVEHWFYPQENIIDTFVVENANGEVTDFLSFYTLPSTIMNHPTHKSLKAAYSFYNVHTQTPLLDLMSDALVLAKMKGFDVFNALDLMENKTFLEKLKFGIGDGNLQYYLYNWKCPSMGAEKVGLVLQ
Method: The IC50 values for human NMT1 (HsNMT1) of four Example compounds of the invention described above (Examples 1-4) and six comparative examples (Comparative Examples 1, 2, 3, 4, 5 and 6) were measured using a sensitive fluorescence-based assay based on detection of CoA by 7-diethylamino-3-(4-maleimido-phenyl)-4-methylcoumarin, as described in Goncalves, V., et al., Analytical Biochemistry, 2012, 421, 342-344 and Goncalves, V., et al., J. Med. Chem, 2012, 55, 3578.

Rat hepatocyte half life = format: in vitro ADME, Sprague-Dawley rats; settings: pooled cryopreserved rat hepatocytes, pH 7.4; pooled male Sprague-Dawley rat hepatocytes; read-out: Rat Hepatocyte t ½
Method: Example Compound 1 was tested for metabolic stability in rat metabolic assays using hepatocytes derived from pooled male Sprague-Dawley rats. Comparative Examples 2, 3 and 4 were also tested in the same assay. Compounds having good metabolic stability in the assay are expected to be especially useful as agents for preventing and/or treating cancer, by having a long half-life in human patients.
Frozen pooled rat hepatocytes obtained from LifeTechnologies were thawed and purified according to the manufacturer's instructions. The test compound (4 mM) in DMSO was diluted with acetonitrile to provide a 100 μM sub-stock then further diluted with pH7.4 Krebs-Henseleit buffer supplemented with CaCl2), NaHCO3, HEPES, fructose and glycine) to provide a 2 μM working solution. 25 μL of working solution was incubated at 37° C., treated with 25 μL of rat hepatocyte suspension (containing 1×10^6 cells/mL) and incubated at 37° C. with 5% CO2 level at 95% relative humidity. Wells were incubated for an appropriate time (0, 15, 30, 45, 60 and 75 min) then quenched with 250 μL of acetonitrile containing reference standards diltiazem, 7-ethoxycoumarin and propranolol). The plates were shaken, sonicated for 5 min then cooled to 4° C. until all sampling was complete. All plates were centrifuged at 4000 rpm for 20 min to pellet the debris. 110 μl supernatant was diluted 110 μL water and quantitated using LC-MS/MS.
The results were used to calculate the % Remaining of the test compound at time point t=100×˜[(AUC at time point t)/(AUC at T=0)]. A linear regression curve was fitted to a plot of natural logarithm (In) of AUC against time. The T-half (min)=0.693/slope

MDA MB 231 cells = assay: CellTiter-Blue assay, MDA MB 231; format: cell-based, human
Method: (§1) Example NMT inhibitors of the present invention were tested for activity in in vitro CellTiter-Blue® assays using the human cell line MDA MB 231, LY 12318, or BL-41. Comparative Examples 1 and 2 were also tested in the same assays. Compounds having activity in inhibiting metabolic activity in the assay are expected to be useful as agents for preventing and/or treating cancer, by virtue of being inhibitors of human NMT1 and/or NMT2.
(§2) MDA MB 231 cells (obtained from Professor Eric Aboagye, Hammersmith Hospital; cell type: triple negative breast cancer) were grown in low glucose DMEM in 5% CO2 media (supplemented with 10% FBS); LY 12318 cells (obtained from Dr Martin Janz, Max Delbrueck Center; cell type: B cell lymphoma patient derived xenograft) were grown in DMEM media (supplemented with 10% FBS); and BL-41 cells (obtained from Cell Services at the Crick Institute; cell type: Burkitt's Lymphoma) were grown in RPMI-1640 media in 5% CO2 (supplemented with 10% FBS). The MDA MB 231 cells, LY 12318 cells or BL-41 cells were seeded in 96-well plates, 24 h prior to treatment. Cell suspensions were prepared by adjusting the cell density to the appropriate concentration (as stated in the Table 2 below) and 50 μL of the cell suspension was transferred to wells B-G in columns 2-11 of a 96-well plate.
(§3) Twenty-four hours later, 50 μl of growth media (low glucose DMEM in 5% CO2 media supplemented with 10% FBS for MDA MB 231 cells; DMEM media in 5% CO2 supplemented with 10% FBS for LY 12318 cells; or RPMI-1640 media supplemented with 10% FBS for BL-41 cells) containing 0.0004% DMSO (positive control), a mix of Puromycin and Staurosporine (negative controls, final concentration 2 μg/mL and 1 μM respectively) or different concentrations of each Example (Example 1 and 2) or each Comparative Example (Comparative Example 1 and 2) (dilution factor=3, starting at […], final concentration in the plate starting from 10 μM) were prepared and added to a well of the 96-well plate. The plate was incubated at 37° C. with 5% CO2 level.
(§4) 72 hours later, 20 μl/well CellTiter-Blue® (G8081, Promega) were added to the plates according to the manufacturer's protocol, the plate was incubated at 37° C. for 4 h for MDA MB 231 cells and BL-41 cells, or 3 h for LY 12318 cells, followed by measuring the absorbance per well at 570 nm using an EnVision plate reader. The negative control values were subtracted from every value. The metabolic activity was calculated as a percentage relative to the positive control. The EC50 values were calculated using GraphPad Prism.

BL-41 cells = assay: CellTiter-Blue assay, BL-41; format: cell-based, human
Method: as §1, §2, §3, §4

LY 12318 cells = assay: CellTiter-Blue assay, LY 12318; format: cell-based, human; settings: 72 h, read-out: LY12318 EC50
Method: as §1, §2, §3, §4

Row | pIC50 (human NMT1 (HsNMT1)) | half-life at 1 µM (Rat hepatocyte half life) [h] | Structure (SMILES) | pEC50 (MDA MB 231 cells; Homo sapiens, MDA-MB-231, 72 h) | pEC50 (BL-41 cells; Homo sapiens, BL-41, 72 h) | pEC50 (LY 12318 cells; Homo sapiens) | pEC50 (MDA MB 231 cells; 72 h) | pEC50 (BL-41 cells; 72 h) | pEC50 (LY 12318 cells)
1 | 7.98 | 0.767 | CNCCc1cnc2ccc(-c3ccc(F)cc3OCCc3c(C)nn(C)c3C)cn12 [Comparative Example 3, [2-(6-{4-fluoro-2-[2-(1,3,5-trimethyl-1H-pyrazol-4-yl)ethoxy]phenyl}imidazo[1,2-a]pyridin-3-yl)ethyl](methyl)amine] | – | – | – | – | – | –
2 | ~9.00 and 9.00 | 1.35 | CNC(=O)c1nn(C)c(C)c1CCOc1cc(F)ccc1-c1ccc2ncc(CCN)n2c1 [Comparative Example 2, 4-(2-{2-[3-(2-aminoethyl)imidazo[1,2-a]pyridin-6-yl]-5-fluorophenoxy}ethyl)-N,1,5-trimethyl-1H-pyrazole-3-carboxamide] | 6.63 | 6.53 | < 6.43 | – | – | –
3 | – | 1.33 | Cc1c(CCOc2cc(Cl)ccc2-c2ccc3ncc(CCN)n3c2)c(C(=O)N(C)C)nn1C [Example Compound 1, 4-(2-{2-[3-(2-aminoethyl)imidazo[1,2-a]pyridin-6-yl]-5-chlorophenoxy}ethyl)-N,N,1,5-tetramethyl-1H-pyrazole-3-carboxamide] | – | – | – | 7.70 | 7.85 | 7.57
